Assay results published in patent publication US11084783B2, “O-alkyl-benzylideneguanidine derivatives and therapeutic use for the treatment of disorders associated with an accumulation of misfolded proteins” (INFLECTIS BIOSCIENCE, priority 2014, dated 2021).

Key:
Type in all cases: cell-based
[1] = system: T181P mutated DM20 protein expressed in Human 293T cell; assay: In vitro model of leukodystrophy (PMD): overexpression of mutated DM20, protein accumulation by western-blot; details: 5 microM, western-blot 48h
Method: Human open reading frame (ORF) sequences for PLP1, DM20 and Insulin were obtained from Life Technologies (Invitrogen) (IOH41689, IOH5252 and IOH7334 respectively). Construct cloning into the expression plasmid pDEST26 (Invitrogen) was performed by Gateway® LR Clonase™ II Enzyme Mix (Invitrogen). ORF mutations were carried out using the QuikChange Lightning Site-Directed Mutagenesis Kit (Stratagene) (T181P mutation for PLP1 and DM20 ORFs, Akita (C96Y) for Insulin ORF).
One day before transfection, 293T cells were plated at 300,000 cells/mL. 293T cells were transfected with PLP1 and DM20 mutant constructs using Lipofectamine 2000 according to manufacturer's procedure. After transfection, cells were treated with molecules or left untreated.
As a control, cells were transfected with native forms of the proteins. 48h later, cellular lysates were harvested. Protein accumulation was assessed by western-blot.

[2] = system: interferon-gamma injured rat oligodendrocytes; assay: In vitro multiple sclerosis model: interferon-gamma injured rat oligodendrocytes co-cultured with neurons; details: interferon-gamma 70 U/ml, 48 H; total number of O4 cells
Method: Neurons/OPC were cultured as previously describes by Yang et al. (2005 J Neurosci Methods;149(1) pp50-6) with modifications. Briefly, the full brain (without cerebellum) obtained from 17-day old rat embryos (Wistar, Janvier labs) were removed. The full brains were treated for 20 min at 37° C. with a trypsin-EDTA (Pan Biotech) solution at a final concentration of 0.05% trypsin and 0.02% EDTA. The dissociation was stopped by addition of Dulbecco's modified Eagle's medium (DMEM) with 4.5 g/liter of glucose (Pan Biotech), containing DNAse I grade II (final concentration 0.5 mg/ml; Pan Biotech, Batch: h140508) and 10% fetal calf serum (FCS; Invitrogen, Batch: 41Q7218K). Cells were mechanically dissociated by three forced passages through the tip of a 10-ml pipette. Cells were then centrifuged at 515 g for 10 min at 4° C. The supernatant was discarded, and the pellet was resuspended in a defined culture medium consisting of Neurobasal medium (Invitrogen, Batch: 1636133) with a 2% solution of B27 supplement (Invitrogen, Batch: 1660670), 2 mmol/liter of L-glutamine (Pan Biotech), 2% of PS solution, and, 1% of FCS and 10 ng/ml of platelet derived growth factor (PDGF-AA, Batch: H131205). The cells were seeded at a density of 20 000 cells per well in 96 well plates precoated with PLL (BD corning, Batch: 6614022) and laminine (Sigma, Batch: 083M4034V). The plates were maintained at 37° C. into a humidified incubator, in an atmosphere of air (95%)-CO2 (5%). Half of the medium was changed every 2 days with fresh medium. On days 18, test compounds were pre-incubated 1 hour before interferon-gamma (70 U/ml, 48H, R&D system, Batch: AAL2214081) application.
On day 18 of culture, test compounds (4 concentrations) were solved in culture medium and then pre-incubated with oligodendrocyte co-cultured with neurons for 1 hour before the interferon-gamma (70 U/ml, 48H) application. […]
For each condition, 30 pictures per well were taken using ImageXpress (Molecular Device) with 20× magnification. […] All values were expressed as mean +/−SEM (s.e.mean) (n=6 wells per condition).

[3] = system: Min6 insulinoma cell; assay: Min6 cell line cytoprotection from ER stress (tunicamycin); details: 6 hour exposure to tunicamycin 2.5 μg/mL, different concentrations, viability 72h
Method: Cells were plated in 96 well plates at a density of 0.5.10^6 cells/mL for Min6 cell line, 0,4.10^6 cells/mL for INS1 cell line the day before the treatment. ER stress was elicited by addition of 2.5 μg/mL tunicamycin (Sigma Aldrich) together with phosphatases inhibitors. Media were changed 6h later with fresh media and the cytoprotection was maintained by the addition of phosphatases inhibitors. Cell viability was assessed by measuring the reduction of WST-8 into formazan using Cell Counting Kit-8 (Sigma) according to the supplier's recommendation, 72h after tunicamycin treatment.

[4] = system: neonatal rat cardiomyocytes; assay: Hypoxia-induced apoptosis in cultured neonatal rat cardiomyocytes; details: hypoxia 0.3% O2 for 36 h, apoptotic cells by FACS
Text: Primary cultures of neonatal rat cardiomyocytes were obtained from the ventricles of 1-day-old Sprague Dawley rats (Janvier, France). The rats were euthanized and their hearts excised. Hearts cut into small pieces (1-2 mm^3) and enzymatically digested using the Neonatal Heart Dissociation Kit rat and the gentleMACS™ Dissociator (MiltenyiBiotec, Germany). After dissociation, the homogenates were filtered (70 μm) to obtain a single-cell suspension. Isolated cells were collected by centrifugation and resuspended in Dulbecco's Modified Eagle's Medium (DMEM) containing 10% horse serum (HS), 5% fetal bovine serum (FBS) and 1% penicillin/streptomycin. Cultures were enriched with myocytes by pre-plating for 90 min to deplete the population of non-myocytes. Non-attached cells were plated onto 6- or 96-well plates at an appropriate cell density. […]
After 24 hours, the cardiomyocytes were treated with different concentrations of test compound in culture medium with 0.1% DMSO. […] Thirty minutes after starting the treatments, the cells were incubated in the hypoxic culture chamber (N2/CO2, 95%/5%; final measured O2: 0.3%) for 36 hours. […]
At the end of the treatment period, flow cytometry were performed to measure the amount of apoptotic cells. […] The mixture was incubated for 15 min in the dark at room temperature, and cellular fluorescence was then measured by FACS scan flow cytometry.

SMILES: CCONC(=N)N/N=C/c1c(F)cccc1Cl [Compound 17, 2-(2-chloro-6-fluorobenzylidene)-N-ethoxyhydrazinecarboximidamide]
- prevention of accumulation of T181P mutated DM20 protein (FIG. 5) [1]: able to prevent the accumulation
- protection of interferon-gamma injured rat oligodendrocytes (FIG. 2) [2]: dose dependent protection
- prevention of Min6 insulinoma cell death (FIG. 7) [3]: prevent Min6 insulinoma cell death

SMILES: CCO/N=C(\N)N/N=C/c1ccccc1Cl [Compound 10, 2-(2-chlorobenzylidene)-N′-ethoxyhydrazinecarboximidamide]
- protection from hypoxia-induced apoptosis (FIG. 10) [4]: protects

SMILES: CCONC(=N)N/N=C/c1c(Cl)cccc1Cl [Compound 11, 2-(2,6-dichlorobenzylidene)-N-ethoxyhydrazinecarboximidamide]
- protection of interferon-gamma injured rat oligodendrocytes (FIG. 2) [2]: dose dependent protection

SMILES: CCCONC(=N)N/N=C/c1ccccc1Cl [Compound 12, 2-(2-chlorobenzylidene)-N-propoxyhydrazinecarboximidamide]
- prevention of accumulation of T181P mutated DM20 protein (FIG. 5) [1]: able to prevent the accumulation
- protection of interferon-gamma injured rat oligodendrocytes (FIG. 2) [2]: dose dependent protection
- prevention of Min6 insulinoma cell death (FIG. 7) [3]: prevent Min6 insulinoma cell death
